The values that follow come from US20120029190A1, “COMPOUNDS FOR TREATING DISORDERS MEDIATED BY METABOTROPIC GLUTAMATE RECEPTOR 5, AND METHODS OF USE THEREOF” (priority 2009, published 2012).

The target of this assay is T1, human recombinant mGluR5 receptor (Homo sapiens, UniProt P41594).
T1 construct: expressed in transfected cells; expression induced with doxycycline
Put plainly: mGluR5 in vitro functional assay (aequorin cell line, inhibition of glutamate EC80 response). It is filed as cell-based. To be noted: aequorin cell line expressing human mGluR5, reference agonist glutamate at EC80, obtained in duplicate, read-out: IC50. On the procedure: B. mGluR5 In Vitro Functional Assay
The functional assay utilized an aequorin cell line expressing human recombinant mGluR5 receptor, an inducible cell line that expresses the human receptor under the control of a promoter induced by doxycycline.
mGluR5 cells in mid-log phase, grown 18 hours prior to the test in antibiotic-free media supplemented with doxycycline (600 ng/mL), were detached by gentle flushing with PBS-EDTA ([…]). The cells were recovered by centrifugation and resuspended in assay buffer (HBSS, […], 3 ug/mL glutamate-pyruvate transaminase, […] MEM sodium pyruvate, 0.1% BSA protease-free). Cells were incubated at room temperature for at least 4 hours with Coelenterazine h (Molecular Probes). The cell suspension (60 uL) containing the test compound was mixed with a solution of reference agonist (30 uL) at its EC80, following an incubation of 3 min. after the first injection. The resulting emission of light was recorded using a Hamamatsu Functional Drug Screening System 6000 (FDSS 6000). To standardize the emission of recorded light (determination of the “100% signal’) across plates and across different experiments, some of the wells contained 100 uM digitonin or a saturating concentration (20 mM) of ATP. Plates also contained the reference agonist (glutamate) at a concentration equivalent to the EC80 obtained during assay validation. Percentages of inhibition were calculated on the basis of the activation induced by the reference agonist at a concentration equal to the EC80. Dose-response data were analyzed with XLFit (IDBS) software using nonlinear regression applied to a sigmoidal dose-response model.

Like-named read-outs stand apart in the source and are kept apart here.

T1 sequence (P41594 21-1212): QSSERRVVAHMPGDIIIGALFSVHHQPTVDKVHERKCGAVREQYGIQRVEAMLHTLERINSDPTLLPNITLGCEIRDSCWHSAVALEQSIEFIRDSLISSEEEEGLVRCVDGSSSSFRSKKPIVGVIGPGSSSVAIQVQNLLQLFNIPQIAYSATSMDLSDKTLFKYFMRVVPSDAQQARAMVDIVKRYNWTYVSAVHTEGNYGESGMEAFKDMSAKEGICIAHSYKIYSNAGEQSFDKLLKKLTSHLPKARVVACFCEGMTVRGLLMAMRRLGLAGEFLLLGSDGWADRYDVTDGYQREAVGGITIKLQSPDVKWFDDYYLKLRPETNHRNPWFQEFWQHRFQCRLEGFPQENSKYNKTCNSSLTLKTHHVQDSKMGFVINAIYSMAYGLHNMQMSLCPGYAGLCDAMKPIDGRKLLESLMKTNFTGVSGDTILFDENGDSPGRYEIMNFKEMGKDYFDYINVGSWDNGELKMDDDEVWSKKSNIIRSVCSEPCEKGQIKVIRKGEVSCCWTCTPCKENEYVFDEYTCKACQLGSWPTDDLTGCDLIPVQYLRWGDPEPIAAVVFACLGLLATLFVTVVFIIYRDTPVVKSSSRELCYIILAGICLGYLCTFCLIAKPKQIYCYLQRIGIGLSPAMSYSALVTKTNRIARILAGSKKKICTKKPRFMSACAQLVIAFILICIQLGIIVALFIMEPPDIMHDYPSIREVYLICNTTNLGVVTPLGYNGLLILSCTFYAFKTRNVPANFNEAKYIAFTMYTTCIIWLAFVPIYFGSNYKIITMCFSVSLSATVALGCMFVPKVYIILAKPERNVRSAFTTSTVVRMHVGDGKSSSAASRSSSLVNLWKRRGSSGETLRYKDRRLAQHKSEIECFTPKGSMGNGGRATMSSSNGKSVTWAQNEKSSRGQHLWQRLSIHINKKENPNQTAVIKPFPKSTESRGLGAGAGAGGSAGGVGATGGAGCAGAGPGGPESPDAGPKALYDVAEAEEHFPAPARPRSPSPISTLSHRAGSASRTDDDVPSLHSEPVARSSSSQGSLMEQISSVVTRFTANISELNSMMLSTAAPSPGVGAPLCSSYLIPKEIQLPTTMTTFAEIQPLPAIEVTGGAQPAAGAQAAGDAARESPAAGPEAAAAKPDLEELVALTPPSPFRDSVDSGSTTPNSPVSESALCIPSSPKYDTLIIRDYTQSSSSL

As to `Fc1ccc(N2CCc3oc(-c4ccccn4)nc3C2)cc1F` [Compound 152, 5-(3,4-Difluorophenyl)-2-(pyridin-2-yl)-4,5,6,7-tetrahydrooxazolo[4,5-c]pyridine], the IC50 (commonly the midpoint of a concentration-inhibition curve) (Table 2) was under 1 µM. The same measure, in the same setting: the figure for `Cc1cccnc1-c1nc2c(o1)CCN(c1cccc(F)c1)C2` [Compound 122, 5-(3-fluorophenyl)-2-(3-methylpyridin-2-yl)-4,5,6,7-tetrahydrooxazolo[4,5-c]pyridine] is over 10 µM.

As to `N#Cc1cccc(N2Cc3nc(-c4ccccn4)oc3C2)c1` [Compound 84, 3-(2-(Pyridin-2-yl)-4H-pyrrolo[3,4-d]oxazol-5(6H)-yl)benzonitrile], under “Table 1”, the IC50 is under 1 µM.

As for `N#Cc1cc(N2CCc3oc(-c4ccccn4)nc3C2)cc(C(F)(F)F)c1` [Compound 32, 3-(2-(Pyridin-2-yl)-6,7-dihydrooxazolo[4,5-c]pyridin-5(4H)-yl)-5-(trifluoromethyl)benzonitrile], the IC50 (Table 1) was under 1 µM. For `Fc1ccc(-c2nc3c(o2)CCN(c2ccccc2Cl)C3)nc1` [Compound 167, 5-(2-Chlorophenyl)-2-(5-fluoropyridin-2-yl)-4,5,6,7-tetrahydrooxazolo[4,5-c]pyridine], the IC50 (Table 2) was under 1 µM. The same measure, in the same setting: the figure for `c1ccc(-c2nc3c(o2)CCN(c2cccc4[nH]ccc24)C3)nc1` [Compound 194, 5-(1H-Indol-4-yl)-2-(pyridin-2-yl)-4,5,6,7-tetrahydrooxazolo[4,5-c]pyridine] is under 1 µM. With `N#Cc1cccc(-c2nc3c(o2)CCN(c2cccc(C#N)c2)C3)c1` [Compound 64, 3,3′-(6,7-Dihydrooxazolo[4,5-c]pyridine-2,5(4H)-diyl)dibenzonitrile], the IC50 (Table 1) was under 1 µM.

For `N#Cc1cc(F)cc(N2CCCc3nc(-c4ccccn4)oc3C2)c1` [Compound 90, 3-Fluoro-5-(2-(pyridin-2-yl)-7,8-dihydro-4H-oxazolo[5,4-c]azepin-5(6H)-yl)benzonitrile], for the setting “Table 1”, the IC50 was under 1 µM. Regarding `N#Cc1cc(Cl)cc(N2CCc3oc(-c4ccccn4)nc3C2)c1` [Compound 186, 3-Chloro-5-(2-(pyridin-2-yl)-6,7-dihydrooxazolo[4,5-c]pyridin-5(4H)-yl)benzonitrile], the IC50 (Table 2) is under 1 µM. Still for that read-out and setting: the figure for `[2H]c1c(F)c([2H])c(N2CCCc3oc(-c4ccccn4)nc3C2)c([2H])c1C#N` [Compound 210, 2,4,6-d3-3-Fluoro-5-(2-(pyridin-2-yl)-7,8-dihydro-4H-oxazolo[4,5-c]azepin-5(6H)-yl)benzonitrile] is under 1 µM. Regarding `N#Cc1cccc(-c2nc3c(o2)CN(c2cccc(C#N)c2)CC3)c1` [Compound 67, 3,3′-(6,7-Dihydrooxazolo[5,4-c]pyridine-2,5(4H)-diyl)dibenzonitrile], the half-maximal inhibitory concentration (IC50) (Table 1) is under 1 µM. Take `N#Cc1cccnc1N1CCc2oc(-c3ccccn3)nc2C1` [Compound 28, 2-(2-(Pyridin-2-yl)-6,7-dihydrooxazolo[4,5-c]pyridin-5(4H)-yl)nicotinonitrile]: the IC50 (Table 1) is under 1 µM. Still for that read-out and setting: then `N#Cc1cc(N2CCc3nc(-c4ccccn4)oc3C2)ccn1` [Compound 9, 4-(2-(Pyridin-2-yl)-6,7-dihydrooxazolo[5,4-c]pyridin-5(4H)-yl)picolinonitrile], with under 10 µM; and `N#Cc1cccc(N2CCc3oc(-c4ccccn4)nc3C2)c1` [Compound 23, 3-(2-(Pyridin-2-yl)-6,7-dihydrooxazolo[4,5-c]pyridin-5(4H)-yl)benzonitrile], with under 1 µM.

Turning to `N#Cc1cc(F)ccc1N1CCc2oc(-c3ccccn3)nc2C1` [Compound 165, 5-Fluoro-2-(2-(pyridin-2-yl)-6,7-dihydrooxazolo[4,5-c]pyridin-5(4H)-yl)benzonitrile], for the setting “Table 2”, the IC50 was under 1 µM. Same read-out and setting: then `Fc1cc(Cl)cc(N2CCCc3oc(-c4ccccn4)nc3C2)c1` [Compound 199, 5-(3-Chloro-5-fluorophenyl)-2-(pyridin-2-yl)-5,6,7,8-tetrahydro-4H-oxazolo[4,5-c]azepine], with under 1 µM. On to `N#Cc1cc(F)cc(N2CCn3nc(-c4ccccn4)nc3C2)c1` [Compound 112, 3-Fluoro-5-(2-(pyridin-2-yl)-5,6-dihydro-[1,2,4]triazolo[1,5-a]pyrazin-7(8H)-yl)benzonitrile], for which the IC50 (Table 1) was under 1 µM. On the same count and under the same terms, the figure for `N#Cc1cccnc1N1CCc2oc(-c3ccc(C(F)(F)F)cc3)nc2C1` [Compound 44, 2-(2-(4-(Trifluoromethyl)phenyl)-6,7-dihydrooxazolo[4,5-c]pyridin-5(4H)-yl)nicotinonitrile] is over 10 µM. With `Fc1cccc(N2CCCc3oc(-c4cnccn4)nc3C2)c1` [Compound 139, 5-(3-fluorophenyl)-2-(pyrazin-2-yl)-5,6,7,8-tetrahydro-4H-oxazolo[4,5-c]azepine], the IC50 (Table 2) was under 10 µM. Same read-out and setting: then `FC(F)(F)c1ccccc1N1CCc2oc(-c3ccccn3)nc2C1` [Compound 182, 2-(Pyridin-2-yl)-5-(2-(trifluoromethyl)phenyl)-4,5,6,7-tetrahydrooxazolo[4,5-c]pyridine], with under 1 µM; and `O=C(CN1CCc2oc(-c3ccccn3)nc2C1)c1ccc(F)cc1` [Compound 192, 1-(4-Fluorophenyl)-2-(2-(pyridin-2-yl)-6,7-dihydrooxazolo[4,5-c]pyridin-5(4H)-yl)ethanone], with over 10 µM. For `COc1ccc(-c2nc3c(o2)CCN(c2ncccc2C#N)C3)cc1` [Compound 43, 2-(2-(4-Methoxyphenyl)-6,7-dihydrooxazolo[4,5-c]pyridin-5(4H)-yl)nicotinonitrile], the IC50 (Table 1) is over 10 µM.

In the case of `N#Cc1cccc(-c2nc3c(o2)CN(c2ncccc2C#N)C3)c1` [Compound 87, 2-(2-(3-Cyanophenyl)-4H-pyrrolo[3,4-d]oxazol-5(6H)-yl)nicotinonitrile], the IC50 (Table 1) is under 1 µM.

In the case of `Fc1ccc(N2CCc3oc(-c4ccccn4)nc3C2)cc1Cl` [Compound 146, 5-(3-chloro-4-fluorophenyl)-2-(pyridin-2-yl)-4,5,6,7-tetrahydrooxazolo[4,5-c]pyridine], the IC50 (Table 2) is under 1 µM. As to `Clc1ccccc1-c1nc2c(o1)CN(c1ccccn1)CC2` [Compound 68, 2-(2-Chlorophenyl)-5-(pyridin-2-yl)-4,5,6,7-tetrahydrooxazolo[5,4-c]pyridine], the IC50 (Table 1) was under 10 µM. For the compound `COc1cccc(N2CCc3oc(-c4ccccn4)nc3C2)c1` [Compound 127, 5-(3-methoxyphenyl)-2-(pyridin-2-yl)-4,5,6,7-tetrahydrooxazolo[4,5-c]pyridine], the IC50 (Table 2) was under 1 µM. On the same count and under the same terms, the figure for `Clc1cncc(N2CCCc3oc(-c4ccccn4)nc3C2)c1` [Compound 198, 5-(5-Chloropyridin-3-yl)-2-(pyridin-2-yl)-5,6,7,8-tetrahydro-4H-oxazolo[4,5-c]azepine] is under 1 µM. Same read-out and setting: the figure for `Cc1nc(N2CCCc3oc(-c4ccccn4)nc3C2)cs1` [Compound 208, 5-(2-Methylthiazol-4-yl)-2-(pyridin-2-yl)-5,6,7,8-tetrahydro-4H-oxazolo[4,5-c]azepine] is over 10 µM. As for `N#Cc1cccc(-c2nc3c(o2)CN(c2ccccn2)C3)c1` [Compound 86, 3-(5-(Pyridin-2-yl)-5,6-dihydro-4H-pyrrolo[3,4-d]oxazol-2-yl)benzonitrile], where the note is “Table 1”, the IC50 was over 10 µM. On to `Cc1cccnc1-c1nc2c(o1)CCN(c1cccc(Cl)c1)C2` [Compound 123, 5-(3-chlorophenyl)-2-(3-methylpyridin-2-yl)-4,5,6,7-tetrahydrooxazolo[4,5-c]pyridine], for which the IC50 (Table 2) is over 10 µM. With `Fc1ccc(Cl)c(N2CCc3oc(-c4ccccn4)nc3C2)c1` [Compound 175, 5-(2-Chloro-5-fluorophenyl)-2-(pyridin-2-yl)-4,5,6,7-tetrahydrooxazolo[4,5-c]pyridine], the half-maximal inhibitory concentration (IC50) (Table 2) was under 1 µM. Same read-out and setting: the figure for `N#Cc1cc(N2CCCc3oc(-c4ccccn4)nc3C2)cc(F)c1O` [Compound 218, 3-Fluoro-2-hydroxy-5-(2-(pyridin-2-yl)-7,8-dihydro-4H-oxazolo[4,5-c]azepin-5(6H)-yl)benzonitrile] is under 10 µM; for `N#Cc1cccc(N2CCc3nc(C4CCCCC4)oc3C2)c1` [Compound 149, 3-(2-Cyclohexyl-6,7-dihydrooxazolo[5,4-c]pyridin-5(4H)-yl)benzonitrile] it is under 10 µM. With `N#Cc1cccc(CN2CCc3nc(-c4ccccn4)oc3C2)c1` [Compound 13], the IC50 (Table 1) was under 10 µM.

In the case of `c1ccc(-c2nc3c(o2)CN(c2nccs2)CC3)nc1` [Compound 22, 2-(Pyridin-2-yl)-5-(thiazol-2-yl)-4,5,6,7-tetrahydrooxazolo[5,4-c]pyridine], the IC50 (Table 1) is under 10 µM. Still for that read-out and setting: then `N#Cc1cc(F)cc(N2CCc3oc(-c4ncco4)nc3C2)c1` [Compound 80, 3-Fluoro-5-(2-(oxazol-2-yl)-6,7-dihydrooxazolo[4,5-c]pyridin-5(4H)-yl)benzonitrile], with under 10 µM. Still for that read-out and setting: the figure for `Fc1cccc(N2CCCc3oc(-c4ccccn4)nc3C2)c1` [Compound 100, 5-(3-Fluorophenyl)-2-(pyridin-2-yl)-5,6,7,8-tetrahydro-4H-oxazolo[4,5-c]azepine] is under 1 µM.

In the case of `Clc1ccccc1[C@H]1CCc2oc(-c3ccccn3)nc2C1` (single isomer, unassigned) [Compound 221], the IC50 (Table 2) was under 1 µM.
